In patent US10905691B2, “Use of triazolo(4,5-d)pyrimidine derivatives for prevention and treatment of bacterial infection” (Universite de Liege, priority 2016, dated 2021):
Where two headings read alike, the source gives them in different places.

What was measured:
[1] = test system: S. aureus MRSA (ATCC BAA-1556); experiment: Killing curve (CFU counting); type: cell-based, Staphylococcus aureus
Procedure: S. aureus MRSA (ATCC BAA-1556) was grown overnight in brain heart infusion (BHI) medium, diluted 1:100 in fresh BHI, and incubated aerobically at 37° C. until bacteria growth reached a logarithmic phase (OD600=0.25-0.3).
Triafluocyl (Cayman Chemical, Item No. 15425) (20 μg/ml), Vancomycin (Sigma, 4 μg/ml or 10 μg/ml), Minocycline (Sigma, 8 μg/ml) or a solvent (DMSO) were added to 5 ml of S. aureus MRSA suspensions.
Bacterial growth for S. aureus MRSA was measured after different time intervals by counting the colony-forming units after plating appropriate culture dilutions on BHI agar plates.
S. aureus MRSA (ATCC BAA-1556) was grown overnight in BHI medium, then a 1:100 inoculum was diluted in fresh BHI and incubated aerobically at 37° C. until bacteria growth reached a logarithmic phase (OD600=0.25-0.3). The culture was split into two and challenged with 38 μM Fluometacyl (=18.2 μg/ml) or DMSO (Ctrl). Bacterial growth was measured after different time intervals by counting the colony-forming units after plating appropriate culture dilutions on BHI agar plates. (N=2)

[2] = test system: Staphylococcus epidermidis (ATCC 35984, also known as RP62A); experiment: MIC determination (EUCAST, Mueller-Hinton broth); type: cell-based
Procedure: (§1) The Minimal Inhibitory Concentration (MIC) and the Minimal Bactericidal Concentration (MBC) of Triafluocyl were determined in Staphylococcus epidermidis (ATCC 35984, also known as RP62A) according to EUCAST (European Committee on Antimicrobial Susceptibility Testing) recommendations.
Briefly, a single colony grown on a Tryptic Soy Agar (TSA) plate was resuspended and cultured in Tryptic Soy Broth (TSB) overnight (O/N) in aerobic conditions (37° C. with 220 rpm shaking), next day a 1:50 inoculum in Mueller-Hinton broth (MHB) was incubated in aerobic conditions for 3 hr and an inoculum of 1:100 dilution, corresponding to 3×10^5 CFU/ml, was incubated in presence or absence of different concentrations of Triafluocyl in 1% DMSO (vehicle). After O/N growth the OD of each culture was measured at 600 nm in a spectrophotometer (OD600). The MIC represents the concentration at which there is no visible growth of bacteria, i.e. ΔOD at 600 nm equal to zero (blank is the medium alone).
The Minimal Inhibitory Concentration (MIC) and the Minimal Bactericidal Concentration (MBC) of Fluometacyl were determined on several gram-positive strains (Table 2) following EUCAST (European Committee on Antimicrobial susceptibility Testing) recommendations.
For MIC determination a single colony was resuspended and cultured in the appropriate bacteria-specific medium (TSB: Tryptic Soy Broth for S. aureus atcc 25904 and S. epidermidis and BHI: brain-heart infusion medium for all the other strains) overnight (O/N) in aerobic conditions (37° C. with 220 rpm shaking), next day a 1:100 inoculum was incubated in Mueller-Hinton broth (MHB) in aerobic conditions for 3 hr (OD600=0.08-0.1). A further inoculum, 1:300 dilution of the MHB culture, corresponding to 3×10^5 CFU/ml, was grown in presence or absence of different concentrations of Fluometacyl, 1% DMSO in MHB for 20 hr.

[3] = test system: Escherichia coli (ATCC 8739); experiment: MBC determination with polymyxin B nonapeptide (PMBN); type: cell-based; details: ATCC8739, in presence of 40 μg/ml PMBN, read-out: Minimal Bactericidal Concentration (MBC)
Procedure: The MBC represents the lowest concentration of drug required to kill the bacteria in a liquid culture.
The Minimal Bactericidal Concentration (MBC) of Triafluocyl in presence of 40 μg/ml PMBN against Escherichia coli (ATCC 8739) is equal to 5 μg/ml (FIG. 11B).
The Minimal Bactericidal Concentration (MBC) of Fluometacyl in presence of 40 μg/ml PMBN against Escherichia coli (ATCC 8739) is equal to 5 μg/ml (FIG. 12B).

[4] = test system: Staphylococcus epidermidis (ATCC 35984, also known as RP62A); experiment: MBC and MDK99.9 determination; type: cell-based
Procedure: as §1
We have also determined the MBC, i.e. the concentration at which the liquid culture, when spread on TSA plates, will not produce any colony.
The Minimum Duration for killing 99.9% S. epidermidis (MDK99.9) by Triafluocyl, a tolerance metric according to the EUCAST, was 2 hours.
For MBC determination a 1:100 inoculum of an O/N culture (prepared like before) was incubated in aerobic conditions for 2 h in bacteria-specific medium. The culture was then challenged with Fluometacyl at the MIC concentration or higher. Bacterial growth was measured after different time intervals by counting the colony-forming units (CFU) after plating appropriate culture dilutions on bacteria-specific medium agar plates.

[5] = test system: E. faecalis vancomycin-resistant (VRE) ATCC BAA-2365; experiment: MIC determination (EUCAST, Mueller-Hinton broth); type: cell-based; details: Enterococcus faecalis
Procedure: Further experiments were conducted using different strains of E. faecalis, as clinically relevant Gram-positive bacterial strains: E. faecalis vancomycin-resistant (VRE) ATCC BAA-2365, and E. faecalis ATCC 29212 in order to determine the Minimal Inhibitory Concentration (MIC) which is the minimal concentration required to prevent bacterial growth; the Minimal Bactericidal Concentration (MBC) which determines the lowest concentration at which an antimicrobial agent kill a particular microorganism and a Minimum Duration for killing 99.9% bacteria (MDK99.9) which is a tolerance metric according to the EUCAST.
MIC determination: A single colony selected from the different strains of E. faecalis is resuspended and cultured in the appropriate medium overnight (O/N) in aerobic conditions (37° C. with 220 rpm shaking), next day a 1:100 inoculum in Mueller-Hinton broth (MHB) was incubated in aerobic conditions for 3 hr (OD=0.08-0.1) and an inoculum of 1:300 dilution, corresponding to 3×10^5 CFU/ml, was incubated in presence or absence of different concentrations of Triafluocyl in 1% DMSO. […]
The Minimal Inhibitory Concentration (MIC) and the Minimal Bactericidal Concentration (MBC) of Fluometacyl were determined on several gram-positive strains (Table 2) following EUCAST (European Committee on Antimicrobial susceptibility Testing) recommendations. […]

[6] = Staphylococcus epidermidis, ATCC35984, S. epidermidis, read-out: MIC

SMILES | effect on S. aureus MRSA viable count after the first two hours ([1]; Triafluocyl 20 μg/ml, Vancomycin 10-fold MIC, Minocycline 8-fold MIC, FIG. 8A) | MIC ([2]; S. epidermidis) [µg/mL] | MIC [2, 6] | MBC [3] [µg/mL] | MBC ([4]; S. epidermidis) [µg/mL] | MDK 99.9 Time (h) needed to kill 99.9% of the started inoculum ([4]; S. epidermidis) [h] | MBC ([4]; Staphylococcus epidermidis, ATCC35984, S. epidermidis, read-out: MBC) [µg/mL] | MIC [5] | bactericidal activity against S. aureus MRSA (time-kill) ([1]; 38 μM (=18.2 μg/ml), FIG. 9) | MBC ([4]; Staphylococcus epidermidis, ATCC35984, S. epidermidis, cut-off 99.9% reduction in CFU, read-out: MBC) [µM]
CCCSc1nc(N[C@@H]2C[C@H]2c2ccc(F)c(F)c2)c2nnn([C@@H]3C[C@H](OCCO)[C@@H](O)[C@H]3O)c2n1 [Triafluocyl, (1S,2S,3R,5S)-3-[7-[(1R,2S)-2-(3,4-difluorophenyl)cyclopropylamino]-5-(propylthio)-3H-[1,2,3]-triazolo[4,5-d]pyrimidin-3-yl]-5-(2-hydroxyethoxy)-1,2-cyclopentanediol] | decrease of S. aureus MRSA viable count | 15 | 12 ± 3 µg/mL | 5 | 20 | 2 | 17 ± 3 | 20 µg/mL | – | –
CCCSc1nc(N[C@@H]2C[C@H]2c2ccc(F)c(F)c2)c2nnn([C@@H]3C[C@H](O)[C@@H](O)[C@H]3O)c2n1 [Fluometacyl, (1S,2R,3S,4R)-4-[7-[[(1R,2S)-2-(3,4-Difluorophenyl)cyclopropyl]amino]-5-(propylthio)-3H-1,2,3-triazolo[4,5-d]pyrimidin-3-yl]-1,2,3-cyclopentanetriol] | – | – | 30 µM | 5 | – | – | – | 38 µM | bactericidal activity | 38
